Results taken from patent US20240197695A1, “COMPOUND FOR PREVENTION OR TREATMENT OF KIDNEY DISEASE” (ONCOCROSS CO.,LTD, priority 2021, published 2024).
Marks after values point to notes of the source that are not given here.

Legend:
Assay type in all cases: in vivo, mice (C57BL/6)
[1] = test system: diabetic nephrosis animal models; assay: Histopathological change (H&E) in liver, kidney, pancreas; conditions: for Kidney: Medullar apoptosis / Kidney: Medullar mineralization / Kidney: NHL / Kidney: bowman's capsule hyperplasia / Kidney: pappillary mineralization / Liver: Apoptosis / Liver: Cytoplasmic glycogen / Liver: Eosinophlic focus of cellular alteration / Liver: Mononuclear cell infiltrate / Liver: NHL / Pancrease: Apoptosis / Pancrease: NHL / Pancrease: islet degeneration / Pancrease: islet hypertrophy / Pancrease: islet, mononuclear cell infillitrate: count in group of 10 animals
Experimental: (§1) STZ (Sigma-aldrich, S0130, 40 mg/kg b.w., in 0.1 M citrate buffer pH 4.5) was intraperitoneally administered to 9-week-old male mice (C57BL/6) once/1 day for 5 days to perform a first disease induction. After 7 weeks of the first induction, a second induction was performed using the same method as the first induction. For 5 days of an STZ administration period for the first induction, 10% sucrose was administered as drinking water. In addition, after 14 days of the second administration, blood glucose levels were confirmed to confirm the induction rate, and the induced animals were separated into groups. Experimental substances (R)-4-{(R)-1-[7-(3,4,5-trimethoxy-phenyl)-[1,6] naphthyridin-5-yloxy]-ethyl}pyrrolidin-2-one (BI-1002494) and cromolyn (OC-101) were administered orally into the stomach at 10 mL/kg using an administration syringe (sonde) before 16:00 daily for 12 weeks at a frequency of 7 days/week at doses shown in Table 1 below, and dexamethasone was orally administered as a positive control substance.
At the end of the observation period, the mice in each group of Example 1 were confirmed to be dead, and the liver, kidney, and pancreas were extracted and fixed with 10% neutral buffered formalin (NBF) in at least 20 times the tissue volume. The fixed tissue was sectioned to a thickness of approximately 4 mm and then produced into a paraffin block through general tissue processing and embedding processes. Thereafter, the tissue was sectioned to a thickness of 4 μm using a rotary microtome, and then H&E staining was performed, and histopathological changes were observed.

[2] = test system: diabetic nephrosis animal models; assay: Blood indoxyl sulfate by LC MS/MS; conditions: after observation period, fasted
Experimental: as §1
(§2) After the observation period for mice of each group in Example 1 was terminated, all surviving animals were fasted in the same manner as when measuring blood glucose levels, and then anesthetized by inhaling isoflurane, and blood was collected from the abdominal vena cava through laparotomy. After the blood collection was completed, the veins and arteries were cut under anesthesia and exsanguinated. The collected blood was left at room temperature for 30 minutes or more and then centrifuged at 3,000 rpm for 20 minutes. Thereafter, glucose, Blood urea nitrogen (BUN), and creatinine were analyzed using an automated blood biochemistry analyzer (Hitachi 3100, Hitachi Co. Ltd., Japan). Indoxyl sulfate (a substance that was mainly produced in the intestines to cause renal injury, and a substance that caused end-stage renal failure by advancing renal function damage in patients with renal failure during hemodialysis) was analyzed using LC MS/MS. In addition, blood insulin was analyzed according to a method represented by a commercial Mouse Insulin ELISA KIT (#AKRIN-011T, Sibayagi Co. Ltd., Japan).

[3] = test system: diabetic nephrosis animal models; assay: Changes in blood glucose levels (tail vein, blood glucose level meter)
Experimental: as §1
Before disease induction, excluding week 9 of administration of experimental substances to mice in each group of Example 1 above, after 2 weeks after the first induction (based on a first administration date), and after 6 weeks and 2 weeks of the second induction (based on the first administration date), blood was collected from the tail vein and blood glucose levels were measured using a blood glucose level meter (Accu-Check, Roche), and fasting was performed for 4 hours from 9:30 a.m. to 1:30.

[4] = test system: diabetic nephrosis animal models; assay: Blood insulin (Mouse Insulin ELISA KIT) and HOMA-IR; conditions: for HOMA-IR, Mean / Insulin, Mean: after observation period, fasted
Experimental: as §1, §2

[5] = administered group (12.5, 25, 50 mg/kg)
[6] = after induction of diabetic renal diseases

Structure (SMILES): COc1cc(-c2cc3ncccc3c(O[C@H](C)[C@H]3CNC(=O)C3)n2)cc(OC)c1OC [BI-1002494, (R)-4-{(R)-1-[7-(3,4,5-trimethoxy-phenyl)-[1,6]naphthyridin-5-yloxy]-ethyl}pyrrolidin-2-one]
- Kidney: Medullar apoptosis ([1]; G4, 12.5 mg/kg oral): 3
- Kidney: Medullar mineralization ([1]; G4, 12.5 mg/kg oral): 0
- Kidney: NHL ([1]; G4, 12.5 mg/kg oral): 7
- Kidney: bowman's capsule hyperplasia ([1]; G4, 12.5 mg/kg oral): 0
- Kidney: pappillary mineralization ([1]; G4, 12.5 mg/kg oral): 0
- Liver: Apoptosis ([1]; G4, 12.5 mg/kg oral): 2
- Liver: Cytoplasmic glycogen ([1]; G4, 12.5 mg/kg oral): 1
- Liver: Eosinophlic focus of cellular alteration ([1]; G4, 12.5 mg/kg oral): 0
- Liver: Mononuclear cell infiltrate ([1]; G4, 12.5 mg/kg oral): 1
- Liver: NHL ([1]; G4, 12.5 mg/kg oral): 7
- Pancrease: Apoptosis ([1]; G4, 12.5 mg/kg oral): 1
- Pancrease: NHL ([1]; G4, 12.5 mg/kg oral): 5
- Pancrease: islet degeneration ([1]; G4, 12.5 mg/kg oral): 2
- Pancrease: islet hypertrophy ([1]; G4, 12.5 mg/kg oral): 1
- Pancrease: islet, mononuclear cell infillitrate ([1]; G4, 12.5 mg/kg oral): 1
- Kidney: Medullar apoptosis ([1]; G5, 25 mg/kg oral): 2
- Kidney: Medullar mineralization ([1]; G5, 25 mg/kg oral): 1
- Kidney: NHL ([1]; G5, 25 mg/kg oral): 7
- Kidney: bowman's capsule hyperplasia ([1]; G5, 25 mg/kg oral): 0
- Kidney: pappillary mineralization ([1]; G5, 25 mg/kg oral): 0
- Liver: Apoptosis ([1]; G5, 25 mg/kg oral): 3
- Liver: Cytoplasmic glycogen ([1]; G5, 25 mg/kg oral): 0
- Liver: Eosinophlic focus of cellular alteration ([1]; G5, 25 mg/kg oral): 0
- Liver: Mononuclear cell infiltrate ([1]; G5, 25 mg/kg oral): 2
- Liver: NHL ([1]; G5, 25 mg/kg oral): 7
- Pancrease: Apoptosis ([1]; G5, 25 mg/kg oral): 0
- Pancrease: NHL ([1]; G5, 25 mg/kg oral): 8
- Pancrease: islet degeneration ([1]; G5, 25 mg/kg oral): 1
- Pancrease: islet hypertrophy ([1]; G5, 25 mg/kg oral): 1
- Pancrease: islet, mononuclear cell infillitrate ([1]; G5, 25 mg/kg oral): 0
- Kidney: Medullar apoptosis ([1]; G6/G7, 50 mg/kg oral): 1
- Kidney: Medullar mineralization ([1]; G6/G7, 50 mg/kg oral): 2
- Kidney: NHL ([1]; G6/G7, 50 mg/kg oral): 7
- Kidney: bowman's capsule hyperplasia ([1]; G6/G7, 50 mg/kg oral): 0
- Kidney: pappillary mineralization ([1]; G6/G7, 50 mg/kg oral): 0
- Liver: Apoptosis ([1]; G6/G7, 50 mg/kg oral): 2
- Liver: Cytoplasmic glycogen ([1]; G6/G7, 50 mg/kg oral): 0
- Liver: Eosinophlic focus of cellular alteration ([1]; G6/G7, 50 mg/kg oral): 0
- Liver: Mononuclear cell infiltrate ([1]; G6/G7, 50 mg/kg oral): 1
- Liver: NHL ([1]; G6/G7, 50 mg/kg oral): 8
- Pancrease: Apoptosis ([1]; G6/G7, 50 mg/kg oral): 0
- Pancrease: NHL ([1]; G6/G7, 50 mg/kg oral): 7
- Pancrease: islet degeneration ([1]; G6/G7, 50 mg/kg oral): 1
- Pancrease: islet hypertrophy ([1]; G6/G7, 50 mg/kg oral): 2
- Pancrease: islet, mononuclear cell infillitrate ([1]; G6/G7, 50 mg/kg oral): 0
- Cytoplasmic glycogen in the liver [1, 5]: reduced in the liver
- Medullar apoptosis in the kidney [1, 5]: reduced in the kidney in a dose-dependent manner
- Indoxyl sulfate, Mean ([2]; 12.5 mg/kg/day oral): 2.2 µg/mL
- Indoxyl sulfate, Mean ([2]; 25 mg/kg/day oral): 2.2 µg/mL
- Indoxyl sulfate, Mean ([2]; 50 mg/kg/day oral): 1.9 µg/mL
- Blood glucose level, Mean ([3]; 12.5 mg/kg/day oral, week 0, 4 h fasting, in mg/dL (unit assumed)): 291.1
- Blood glucose level, Mean ([3]; 12.5 mg/kg/day oral, week 2, 4 h fasting, in mg/dL (unit assumed)): 319.5
- Blood glucose level, Mean ([3]; 12.5 mg/kg/day oral, week 4, 4 h fasting): 225.1^#
- Blood glucose level, Mean ([3]; 12.5 mg/kg/day oral, week 6, 4 h fasting): 261.8^#
- Blood glucose level, Mean ([3]; 12.5 mg/kg/day oral, week 8, 4 h fasting): 270.4^#
- Blood glucose level, Mean ([3]; 12.5 mg/kg/day oral, week 10, 4 h fasting): 280.8^#
- Blood glucose level, Mean ([3]; 25 mg/kg/day oral, week 0, 4 h fasting, in mg/dL (unit assumed)): 301.2
- Blood glucose level, Mean ([3]; 25 mg/kg/day oral, week 2, 4 h fasting, in mg/dL (unit assumed)): 310.1
- Blood glucose level, Mean ([3]; 25 mg/kg/day oral, week 4, 4 h fasting): 218.6^#
- Blood glucose level, Mean ([3]; 25 mg/kg/day oral, week 6, 4 h fasting): 257.8^#
- Blood glucose level, Mean ([3]; 25 mg/kg/day oral, week 8, 4 h fasting): 279.1^#
- Blood glucose level, Mean ([3]; 25 mg/kg/day oral, week 10, 4 h fasting): 255.9^#
- Blood glucose level, Mean ([3]; 50 mg/kg/day oral, week 0, 4 h fasting, in mg/dL (unit assumed)): 303.7
- Blood glucose level, Mean ([3]; 50 mg/kg/day oral, week 2, 4 h fasting, in mg/dL (unit assumed)): 264.5
- Blood glucose level, Mean ([3]; 50 mg/kg/day oral, week 4, 4 h fasting): 201.0^#
- Blood glucose level, Mean ([3]; 50 mg/kg/day oral, week 6, 4 h fasting): 199.6^#
- Blood glucose level, Mean ([3]; 50 mg/kg/day oral, week 8, 4 h fasting): 200.9^#
- Blood glucose level, Mean ([3]; 50 mg/kg/day oral, week 10, 4 h fasting): 187.3^#
- Blood glucose levels compared to those of the positive control group [3, 5]: decreased significantly
- Blood glucose levels, summary [3, 6]: decreased in a dose-dependent manner
- HOMA-IR, Mean ([4]; 12.5 mg/kg/day oral): 12.4
- Insulin, Mean ([4]; 12.5 mg/kg/day oral): 0.7 ng/mL
- HOMA-IR, Mean ([4]; 25 mg/kg/day oral): 8.7^#
- Insulin, Mean ([4]; 25 mg/kg/day oral): 0.5^# ng/ml
- HOMA-IR, Mean ([4]; 50 mg/kg/day oral): 6.9^#
- Insulin, Mean ([4]; 50 mg/kg/day oral): 0.5 ng/mL
- HOMA-IR compared with that of the disease control group ([4]; 25 and 50 mg/kg administered groups): statistically significantly reduced
- Insulin resistance (HOMA-IR), summary [4, 6]: decreased in a dose-dependent manner
